Source: publication PMC7344389, “Discovery of Anti-Amoebic Inhibitors from Screening the MMV Pandemic Response Box on Balamuthia mandrillaris, Naegleria fowleri, and Acanthamoeba castellanii” (Pathogens, 2020)

Tested on: Acanthamoeba castellanii trophozoites
Experiment: CellTiter-Glo 2.0 trophocidal assay, A. castellanii
Assay type: cell-based
Conditions: for IC50: 72 h, CTG method, duplicate twofold serial dilutions from 10 µM, mean ± SD; for Selectivity Index (A549 IC50/A. castellanii IC50): SI = (IC50 A549)/(IC50 Amoeba); for potency against A. castellanii, in words: dose-response, CTG
Protocol: This isolate was also purchased from ATCC. Trophozoites were routinely grown axenically at 27 °C in Protease Peptone-Glucose Media (PG) in non-vented 75 cm^2 tissue culture flasks (Olympus, El Cajon, CA, USA), until the cells were 80–90% confluent. For sub-culturing, cells were mechanically harvested to detach the cells from the culture flasks. The cells were collected by centrifugation at 4000 rpm at 4 °C.
The trophocidal activity of compounds was assessed using the CellTiter-Glo 2.0 luminescent viability assay (Promega, Madison, WI, USA), as previously described. Trophozoites were routinely cultured as described above and only logarithmic trophozoites were used. […] Initially all compounds were assessed in a single-point drug screen at 10 and 1 μM, as previously described. […] We used this process to reduce the number of potential false positives. Drugs were cherry-picked, dissolved in the media specific to each parasite, and assessed in twofold serial dilutions from the highest concentration of 10 μM. All assays were incubated at each of the parasites’ representative growth temperatures, described above, for 72 h. At the 72 h time point, 25 μL of CellTiter-Glo 2.0 reagent was added to all wells of the 96-well plates using the Biomek NX^P automated workstation. The plates were protected from light and contents were mixed using an orbital shaker at 300 rpm at room temperature for 2 min to induce cell lysis. After shaking, the plates were equilibrated at room temperature for 10 min to stabilize the luminescent signal. The adenosine triphosphate (ATP) luminescent signal (relative light units; RLUs) was measured at 490 nm with a SpectraMax I3X plate reader (Molecular Devices, Sunnyvale, CA, USA). Drug inhibitory concentration (IC50) curves were generated using total ATP RLUs, where controls were calculated as the average of replicates using the Levenberg–Marquardt algorithm, using DMSO as the normalization control, as defined in Collaborative Drug Discovery Inc. (CDD) Vault (Burlingame, CA, USA). Values reported are from a minimum of two biological replicates with standard deviations.

SMILES | IC50 (Acanthamoeba castellanii) | Selectivity Index (A549 IC50/A. castellanii IC50) | Selectivity Index (A549 IC50/A. castellanii IC50) (listed as terbinafine) | potency against A. castellanii, in words | IC50 | IC50 (listed as butenafine) | Selectivity Index (A549 IC50/A. castellanii IC50) (listed as ravuconazole)
CN(C/C=C/C#CC(C)(C)C)Cc1cccc2ccccc12 [Terbinafine] | 0.56 ± 0.28 µM | ≥18 | ≥ 10 | nanomolar potency |  |  | 
Cc1[nH]c2ccccc2c1CCNCc1ccc(/C=C/C(=O)NO)cc1 [Panobinostat] | > 10 µM |  |  |  |  |  | 
CN(Cc1ccc(C(C)(C)C)cc1)Cc1cccc2ccccc12 [Butenafine] |  | ≥5.08 |  |  | 1.97 ± 1.76 µM | ≤ 10 µM | 
C[C@@H](c1nc(-c2ccc(C#N)cc2)cs1)[C@](O)(Cn1cncn1)c1ccc(F)cc1F [Ravuconazole] | 0.02 ± 0.01 µM | ≥625 |  | nanomolar potency |  |  | ≥ 10
CC(=O)Oc1ccccc1C(=O)Nc1ncc([N+](=O)[O-])s1 [Nitazoxanide] | > 10 µM |  |  |  |  |  | 
